Measurements: US11753408B2, “Compounds and method for blocking transmission of malarial parasite” (The United States of America, as represented by the …, priority 2016, dated 2023)
Where two headings read alike, the source gives them in different places.

Tests used:
[1] = Solubility at pH 7.4; type: physicochemical
[2] = PAMPA permeability; type: in vitro ADME; details: PAMPA
[3] = system: Stage III-V gametocytes (blood stage P. falciparum parasites); assay: In vitro drug activity on gametocytes (AlamarBlue viability assay); type: cell-based, Plasmodium falciparum; details: for EC50: read-out: Gametocyte EC50
Experimental: Cell culture. Asexual parasites of P. falciparum strain 3D7 were cultured as described previously [Trager W, et al., Journal of Parasitology 2005, 91: 484-486], Stage III-V gametocytes were selected and enriched with 3-day treatment with 50 mM N-acetylglucosamine (NAG) and the following Percoll density gradient centrifugation after gametocyte production [Tanaka T Q, et al., Molecular and Biochemical Parasitology, 2011, 111: 160-163], Gametocytes of HB3 and Dd2 strains were produced and then set up for assay in a similar process. HepG2 cells (ATCC, cat. no. 77400) were cultured in 175-cm^2 tissue culture flasks with 30 ml growth medium at 37° C. in a 5% CO2 humidified atmosphere. Growth medium was made with Dulbecco's Modified Eagle Medium with 10% fetal bovine serum (FBS). Growth medium was replaced every other day and cells were passed at 75% confluence.
Compound screening experiments were performed as previously described [Tanaka T Q et al., Molecular and Biochemical Parasitology, 2013, 3188: 20-25], Briefly, 2.5 μl/well incomplete medium was dispensed into each well of 1,536-well plates using the Multidrop Combi followed by 23 nl compound transferring using the NX-TR Pintool (WAKO Scientific Solutions, San Diego, Calif.). 2.5 μl/well of gametocytes was dispensed with a seeding density of 20,000 cells/well using the Multidrop Combi. The assay plates were incubated for 72 h at 37° C. with 5% CO2. After addition of 5 μl/well of 2× AlamarBlue dye (Life Technologies, cat. no. DALI 100), the plates were incubated for 24 h at 37° C. with 5% CO2 and were read in a fluorescence detection mode (Ex=525 nm, Em=598 nm) on a ViewLux plate reader (PerkinElmer).
Stage III-V gametocytes (blood stage P. falciparum parasites) were enriched with treatment with 50 mM N-acetylglucosamine (NAG) and Percoll density gradient centrifugation as described previously^1. Briefly, 2.5 μl/well incomplete medium was dispensed into each well of 1,536-well plates using the Multidrop Combi followed by 23 nl compound transfer using the NX-TR Pintool (WAKO Scientific Solutions, San Diego, Calif.). Then, 2.5 μl/well of gametocytes was dispensed with a seeding density of 20,000 cells/well using the Multidrop Combi. The assay plates were incubated for 72 h at 37° C. with 5% CO2. After addition of 5 μl/well of 2× AlamarBlue dye (Life Technologies, cat. no. DALI 100), the plates were incubated for 24 h at 37° C. with 5% CO2 and then were read in a fluorescence detection mode (Ex=525 nm, Em=598 nm) on a ViewLux plate reader (PerkinElmer).

[4] = system: Asexual parasites of P. falciparum strain 3D7; assay: In vitro drug activity on asexual parasites (SYBR Green assay); type: cell-based, Plasmodium falciparum
Procedure, shortened: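 3D7 parasites at 0.5% parasitemia and 2% hematocrit were exposed to drugs (DMSO ≤0.5%) for 72 h under standard culture conditions, in duplicate. After freeze-thaw lysis, SYBR Green I lysis buffer was added for 30 min at room temperature, and fluorescence was read at 490/520 nm.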

[5] = molecular target: mTOR (Homo sapiens, UniProt P42345); assay: mTOR activity (no method described); type: biochemical
[6] = Microsomal stability (rat); type: in vitro ADME; details: rat microsomes
[7] = P. falciparum stage III-V gametocytes, 72 h incubation, AlamarBlue

Sol @ pH 7.4 (ug/mL) [1] [ug/mL]	PAMPA Permeability (×10^6 cm/s) [2]	Sol @ pH 7.4 [1] [ug/mL]	EC50 [4] [nM]	mTOR [5]	Microsomal Stability (rat) T1/2 [6] [min]	EC50 ([4]; P. falciparum 3D7 asexual parasites, 72 h, SYBR Green) [nM]	SMILES	EC50 [3, 7] [nM]	EC50 [3] [nM]	Gametocyte EC50 [3]
7.03	725.27 ×10^6 cm/s						CN(C)Cc1ccc(-c2ccc3ncc4ccc(=O)n(-c5ccc(N6CCOCC6)c(C#N)c5)c4c3c2)cc1 [Compound 5]	508		
10	5.1 ×10^6 cm/s						C[S+]([O-])c1ccc(-n2c(=O)ccc3cnc4ccc(-c5ccc(N)nc5)cc4c32)cc1 (stereo not drawn) [Compound 81]	33.9		
		5	76.8	3.581 µM	5		CNC(=O)c1ccc(-n2c(=O)ccc3cnc4ccc(-c5ccc(Cl)cc5)cc4c32)c(C)c1 [Compound 112]		179	
		<1.0	29.9	1.37 µM	13.6		Nc1cc(-c2ccc3ncc4ccc(=O)n(-c5ccc(C(=O)N6CCOCC6)cc5)c4c3c2)ccc1Cl [Compound 113]		75.9	
		<1.0	6.95	0.4313 µM	23.3		O=C(c1ccc(-n2c(=O)ccc3cnc4ccc(-c5ccc(Cl)c(O)c5)cc4c32)cc1)N1CCOCC1 [Compound 114]		13.6	
		>80.0	14400	4.734 µM	>30.0		O=C(O)c1cc(-c2ccc3ncc4ccc(=O)n(-c5ccc(C(=O)N6CCOCC6)cc5)c4c3c2)ccc1Cl [Compound 117]			Inactive
		<1.0	6.6	0.2691 µM	>30.0		Nc1ccc(-c2ccc3ncc4ccc(=O)n(-c5ccc(C(=O)N6CCOCC6)cc5)c4c3c2)cc1 [Compound 118]		29.6	
		<1.0	7.55	0.07539 µM	18.4		O=C(c1ccc(-n2c(=O)ccc3cnc4ccc(-c5ccc(O)cc5)cc4c32)cc1)N1CCOCC1 [Compound 119]		32.4	
		<1.0	7.5	0.2246 µM	>30.0		O=C(c1ccc(-n2c(=O)ccc3cnc4ccc(-c5ccc(CO)cc5)cc4c32)cc1)N1CCOCC1 [Compound 120]		35.9	
		<1.0	188	1.518 µM	1.6		O=C(c1ccc(-n2c(=O)ccc3cnc4ccc(-c5ccc(Cl)cc5)cc4c32)cc1)N1C2CCCC1CC2 [Compound 137]		1000	
		<1.0	13800	46.17 µM	1.4		O=C(c1ccc(-n2c(=O)ccc3cnc4ccc(-c5ccc(Cl)cc5)cc4c32)cc1)N(C1CCCCC1)C1CC1 [Compound 142]		50000	
		21.8	601	18.17 µM	>30.0		O=C(c1ccc(-n2c(=O)ccc3c[n+]([O-])c4ccc(-c5ccc(Cl)cc5)cc4c32)cc1)N1CCOCC1 [Compound 148]		4580	
		8.8	409	6.235 µM	>30.0		NC(=O)c1cc(-c2ccc3ncc4ccc(=O)n(-c5ccc(C(=O)N6CCOCC6)cc5)c4c3c2)ccc1Cl [Compound 149]		840	
		3.9	3820	7.873 µM	2.4		CCNC(=O)c1cc(-c2ccc3ncc4ccc(=O)n(-c5ccc(C(=O)N6CCOCC6)cc5)c4c3c2)ccc1Cl [Compound 150]		6230	
		<1.0	19.1	3.72 µM	3.5		O=C(c1ccc(-n2c(=O)ccc3cnc4ccc(-c5ccc(Cl)cc5)nc4c32)cc1)N1CCOCC1 [Compound 151]		52.7	
		<1.0	2200	0.7962 µM	3.3		COC(=O)c1cc(-c2ccc3ncc4ccc(=O)n(-c5ccc(C(=O)N6CCOCC6)cc5)c4c3c2)ccc1Cl [Compound 152]		4040	
		66.62	731	11.78 µM	>30.00		CCN(CC)Cc1ccc(-c2ccc3ncc4ccc(=O)n(-c5ccc(C(=O)N6CCOCC6)cc5)c4c3c2)cc1 [Compound 175]		1620	
		1.1	459	1.439 µM	10.8		O=C(c1ccc(-n2c(=O)ccc3cnc4ccc(-c5ccc(CCN6CCOCC6)cc5)cc4c32)cc1)N1CCOCC1 [Compound 182]		1480	
		>68.0	1570	3.229 µM	>30.0		O=C(c1ccc(-n2c(=O)ccc3cnc4ccc(Br)cc4c32)cc1)N1CCOCC1 [Compound 337]		6230	
>72.00	1209.2 ×10^6 cm/s					878	CN(C)Cc1ccc(-c2ccc3ncc4ccc(=O)n(-c5ccc6c(c5)CCC(=O)N6C)c4c3c2)cc1 [Compound 358]	2180		
		<1.0	268	Inactive	>30.0		N#Cc1cccc(-n2c(=O)[nH]c3cnc4ccc(-c5ccc(Cl)cc5)cc4c32)c1 [Compound 397]		232	
		<1.0	105	2.471 µM	>30.0		Cn1c(=O)n(-c2cccc(C#N)c2)c2c3cc(-c4ccc(Cl)cc4)ccc3ncc21 [Compound 398]		194	
		<1.0	219	100 µM	>30.0		Cc1ccc(C#N)cc1-n1c(=O)[nH]c2cnc3ccc(-c4ccc(Cl)cc4)cc3c21 [Compound 399]		522	
		3.1	125	100 µM	>30.0		COc1cc(-c2ccc3ncc4c(c3c2)n(-c2cccc(C#N)c2)c(=O)n4C)ccc1Cl [Compound 403]		262	
		<0.1	298	100 µM	2.4		CC(=O)n1c(=O)n(-c2cccc(C#N)c2)c2c3cc(-c4ccc(Cl)cc4)ccc3ncc21 [Compound 405]		666	
		<1	8.46	0.2165 µM	19.4		Cn1c(=O)n(-c2ccc(N3CCNCC3)c(C#N)c2)c2c3cc(-c4ccc(Cl)cc4)ccc3ncc21 [Compound 406]		13.1	
		<1	52.4	50 µM	>30		COc1cc(-c2ccc3ncc4c(c3c2)n(-c2cc(C#N)ccc2C)c(=O)n4C)ccc1Cl [Compound 407]		104	
		<1.0	787	100 µM	>30.0		CCn1c(=O)n(-c2cccc(C#N)c2)c2c3cc(-c4ccc(Cl)cc4)ccc3ncc21 [Compound 440]		2180	
